Values quoted from earlier work as cited in patent publication US20220287302A1, “COMPOSITIONS FOR PATHOGEN IN[…] PATHOGEN REDUCTION MANAGEMENT” (priority 2020, published 2022).

## O=c1c(O)c(O)c1=O [Squaric acid, 3,4-dihydroxy-3-cyclobutene-1,2 dione]
First proton
  pKa for the first proton: 1.5
Second proton
  pKa for the second proton: 3.4
